Read-outs that look alike come from different tables or passages of the source.
Assays:
Assay type in all cases: cell-based
[1] = molecular target: T1, Ikaros (protein product of gene IKZF1) (Homo sapiens, UniProt Q13422+Q96SW2); assay: Quantification of Ikaros degradation in OCI-LY10 cells (quantitative immunoblotting); settings: 6 h treatment
T1 construct: endogenous in cells; host or cells: OCI-LY10
Method: (§1) Degradation of Ikaros (protein product of gene IKZF1) and Aiolos (protein product of gene IKZF3) were determined by quantitative immunoblotting as follows. OCI-LY10 cells, 2×10^6 cells/well, were treated with listed concentrations of IRAK4 degraders or control compounds in 6 well plates for 6 h. Cells were collected, washed with cold PBS, lysed in RIPA buffer (Boston BioProducts BP-115D) with protease/phosphatase inhibitor cocktail (Roche 05892791001/Roche 04906837001) and centrifuged at 13000 RPM for 20 min to precipitate insoluble material. The supernatant fraction was diluted in SDS-PAGE loading buffer (Beyotime Bio P0015) and 20 μL of each sample was resolved on 4-12% Bis-Tris SDS-PAGE gels (Novex, WG1402BOX). Resolved samples were transferred to nitrocellulose membranes by wet electro-transfer method at 250 mV for 1.5 h. The membrane was blocked with LICOR blocking buffer (LI-COR, 927-50000) for 1 hour, washed three times with TBST (CST #99975) for 5 minutes each and incubated with primary antibody prepared in block buffer with 0.1% Tween-20 (Solarbio, P8220) at 4° C. overnight. Ikaros antibody was rabbit monoclonal D6N9Y (CST #14859), at 1:1000 dilution. Aiolos antibody was rabbit monoclonal D1C1E (CST #15103), at 1:1000 dilution. Signal was normalized to mouse anti-beta-Actin monoclonal 8H10D10 (CST #3700) used at 1:10,000 dilution. After incubation in primary antibodies, membranes were washed three times with TBST, 5 minutes each, incubated with fluorescently labeled secondary antibodies anti-rabbit IgG (Licor, 926-32211) at 1:5000 dilution; anti-mouse IgG (LI-COR, 926-68070) at 1:5000 dilution, for 1 hour at RT. After incubation in secondary, membranes were washed three times with TBST, 5 minutes each and read on LICOR Odyssey imager. Data was reported as signal for Ikaros or Aiolos relative to signal for actin, and normalized to DMSO-treated control.

[2] = molecular target: T2, Aiolos (protein product of gene IKZF3) (Homo sapiens, UniProt Q96SW2+Q9UKT9); assay: Quantification of Aiolos degradation in OCI-LY10 cells (quantitative immunoblotting); settings: 6 h treatment
T2 construct: endogenous in cells; host or cells: OCI-LY10
T2 sequence (Q9UKT9 whole entry): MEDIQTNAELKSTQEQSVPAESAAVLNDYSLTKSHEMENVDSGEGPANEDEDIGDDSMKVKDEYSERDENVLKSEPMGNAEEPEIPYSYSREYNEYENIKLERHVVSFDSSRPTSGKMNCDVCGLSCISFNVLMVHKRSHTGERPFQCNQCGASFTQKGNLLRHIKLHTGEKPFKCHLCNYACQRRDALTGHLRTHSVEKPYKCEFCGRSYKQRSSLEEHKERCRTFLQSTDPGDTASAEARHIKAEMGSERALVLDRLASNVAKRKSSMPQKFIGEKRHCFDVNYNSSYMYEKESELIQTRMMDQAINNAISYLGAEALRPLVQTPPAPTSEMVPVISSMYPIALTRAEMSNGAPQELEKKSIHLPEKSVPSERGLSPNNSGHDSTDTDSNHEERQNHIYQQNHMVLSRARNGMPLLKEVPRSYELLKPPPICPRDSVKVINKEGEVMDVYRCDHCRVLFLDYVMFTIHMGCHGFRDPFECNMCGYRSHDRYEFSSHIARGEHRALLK
T2 sequence (Q96SW2 whole entry): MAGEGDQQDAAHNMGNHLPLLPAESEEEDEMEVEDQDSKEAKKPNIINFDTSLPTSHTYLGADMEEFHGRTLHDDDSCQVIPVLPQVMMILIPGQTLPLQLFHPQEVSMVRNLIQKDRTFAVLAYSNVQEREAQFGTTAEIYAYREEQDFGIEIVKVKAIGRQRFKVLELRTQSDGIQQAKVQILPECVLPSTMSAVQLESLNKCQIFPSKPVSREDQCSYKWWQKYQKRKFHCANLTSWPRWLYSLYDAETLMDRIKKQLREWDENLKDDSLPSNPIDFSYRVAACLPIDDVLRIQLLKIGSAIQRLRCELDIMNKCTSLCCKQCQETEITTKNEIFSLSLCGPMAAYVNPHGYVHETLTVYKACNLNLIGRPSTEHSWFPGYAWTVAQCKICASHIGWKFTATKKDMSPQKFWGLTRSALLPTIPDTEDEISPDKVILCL
T2 sequence (Q16531 whole entry partner): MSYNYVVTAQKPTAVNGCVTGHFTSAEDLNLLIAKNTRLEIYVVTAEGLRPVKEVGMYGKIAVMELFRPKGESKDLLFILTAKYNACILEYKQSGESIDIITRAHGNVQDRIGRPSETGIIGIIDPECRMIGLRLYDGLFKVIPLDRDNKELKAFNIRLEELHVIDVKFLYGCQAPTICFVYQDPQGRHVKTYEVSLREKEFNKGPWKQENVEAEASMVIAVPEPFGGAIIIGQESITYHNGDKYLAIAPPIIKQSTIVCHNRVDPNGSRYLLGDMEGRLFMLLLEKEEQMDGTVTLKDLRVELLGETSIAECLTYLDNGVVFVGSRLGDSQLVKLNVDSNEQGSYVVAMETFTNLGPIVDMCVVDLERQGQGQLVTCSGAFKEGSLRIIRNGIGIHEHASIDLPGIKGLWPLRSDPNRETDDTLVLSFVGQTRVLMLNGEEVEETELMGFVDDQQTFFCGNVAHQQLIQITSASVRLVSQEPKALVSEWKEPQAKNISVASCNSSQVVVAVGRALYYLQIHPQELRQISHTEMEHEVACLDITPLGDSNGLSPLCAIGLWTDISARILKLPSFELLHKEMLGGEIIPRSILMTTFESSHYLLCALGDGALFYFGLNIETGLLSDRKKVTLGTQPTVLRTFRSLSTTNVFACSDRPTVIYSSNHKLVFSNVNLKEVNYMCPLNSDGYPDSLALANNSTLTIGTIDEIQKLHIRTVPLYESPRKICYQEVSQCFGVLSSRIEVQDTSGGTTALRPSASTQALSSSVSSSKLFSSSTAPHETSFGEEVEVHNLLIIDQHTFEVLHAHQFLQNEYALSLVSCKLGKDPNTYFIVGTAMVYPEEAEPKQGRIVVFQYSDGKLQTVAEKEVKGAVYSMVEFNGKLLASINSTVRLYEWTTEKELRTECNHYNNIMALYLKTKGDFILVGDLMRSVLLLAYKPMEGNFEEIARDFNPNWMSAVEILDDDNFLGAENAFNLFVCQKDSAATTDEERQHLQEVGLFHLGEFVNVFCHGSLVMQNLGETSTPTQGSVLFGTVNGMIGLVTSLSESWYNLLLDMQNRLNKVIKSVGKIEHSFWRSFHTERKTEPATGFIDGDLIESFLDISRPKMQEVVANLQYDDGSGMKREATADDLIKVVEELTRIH
Method: as §1

[3] = molecular target: T3, IRAK4 (Homo sapiens, UniProt Q9NWZ3); assay: IRAK4 MSD Degradation in OCI-LY10; settings: OCI-LY10 cells
T3 construct: endogenous in cells; host or cells: OCI-LY10
T3 sequence (Q9NWZ3 1-460): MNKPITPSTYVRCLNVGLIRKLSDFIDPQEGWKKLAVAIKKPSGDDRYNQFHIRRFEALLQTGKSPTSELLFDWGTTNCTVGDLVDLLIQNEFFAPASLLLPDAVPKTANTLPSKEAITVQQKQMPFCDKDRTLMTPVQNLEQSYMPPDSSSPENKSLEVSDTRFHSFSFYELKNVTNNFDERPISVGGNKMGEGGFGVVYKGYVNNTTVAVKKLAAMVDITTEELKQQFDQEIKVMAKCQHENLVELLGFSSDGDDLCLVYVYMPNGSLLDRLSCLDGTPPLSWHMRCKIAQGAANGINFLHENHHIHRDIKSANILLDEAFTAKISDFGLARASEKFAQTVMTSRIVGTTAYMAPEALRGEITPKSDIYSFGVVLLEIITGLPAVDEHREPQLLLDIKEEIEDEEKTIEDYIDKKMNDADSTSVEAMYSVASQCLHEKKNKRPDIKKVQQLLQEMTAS
Method: Degradation of IRAK4 in OCI-LY10 was quantitatively measured using Meso Scale Discovery technology. OCI-LY10 cells were seeded in 96-well plates (Corning 3799) with a density of 300,000 cells per well in 100 μL fresh media. Compounds were then added to the assay plates with a final top concentration of 1 to 10 μM in a 1:3 dilution series with total of 8 doses. The assay plates were then incubated for 4 to 24 hours at 37° C. under 5% CO2. The assay plates were then centrifuged for 5 minutes and the cell pellets were treated with 100 μL/well RIPA lysis buffer (Boston BioProducts BP-115D) with proteinase inhibitors. To prepare MSD assay plates (Meso Scale Discovery Catalog number L15XA-3), the plates were coated with 2 μg/mL capture antibody (mouse Anti-IRAK4 antibody [2H9], ab119942) in PBS, at 40 μL/well. The plates were then incubated overnight at 4° C., washed 3 times with 150 μL/well TBST buffer (Cell Signaling Technology, Catalog number 9997S) and blocked with 150 μL/well blocking buffer (Meso Scale Discovery Catalog number R93BA-4). Cell lysates were then added to MSD assay plates and the plates were incubated at room temperature for 1 hour. The plates were then washed 3 times with 150 μL/well TBST buffer and 25 μL/well primary detection antibody (rabbit Anti-IRAK4 antibody [Y279], from Abcam. Catalog number ab32511, 1 μg/mL). The assay plates were then incubated at room temperature for 1 hour, washed 3 times with 150 μL/well TBST buffer and 25 μL/well secondary detection antibody, SULFO-TAG anti-rabbit antibody were added (anti rabbit antibody from Meso Scale Discovery, Catalog number R32AB-1, 1 μg/mL). The assay plates were then incubated at room temperature for 1 hour, washed 3 times with 150 μL/well TBST buffer, and 150 μL/well MSD reading buffer (Meso Scale Discovery catalog number R92TC-2) was added. The plates were then analyzed by a MSD reader (Meso Scale Discovery, Model Quick Plex SQ 120). The data was then analyzed by software Prism 7.0 from GraphPad and the dose-depended IRAK4 degradation were fit using a three-parameter logistic equation to calculate DC50.

[4] = 24 hrs incubation, read-out: IRAK4 degradation in OCI-LY10 at 24 hrs: DC50

T1 sequence (Q13422 whole entry): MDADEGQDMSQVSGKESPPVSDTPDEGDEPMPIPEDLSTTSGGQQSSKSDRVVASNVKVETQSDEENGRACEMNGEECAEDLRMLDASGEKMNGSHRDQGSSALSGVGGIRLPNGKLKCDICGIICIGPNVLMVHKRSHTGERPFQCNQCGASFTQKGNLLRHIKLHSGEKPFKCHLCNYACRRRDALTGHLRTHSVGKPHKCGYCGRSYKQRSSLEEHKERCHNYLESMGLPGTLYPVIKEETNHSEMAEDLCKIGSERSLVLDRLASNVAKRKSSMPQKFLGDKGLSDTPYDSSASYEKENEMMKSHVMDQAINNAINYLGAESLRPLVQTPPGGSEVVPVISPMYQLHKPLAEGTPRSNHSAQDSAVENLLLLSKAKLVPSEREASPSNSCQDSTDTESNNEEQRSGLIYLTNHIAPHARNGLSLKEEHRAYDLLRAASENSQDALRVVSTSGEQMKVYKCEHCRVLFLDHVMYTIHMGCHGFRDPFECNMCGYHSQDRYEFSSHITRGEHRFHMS
T1 sequence (Q96SW2 whole entry): as the sequence (Q96SW2 whole entry) above
T1 sequence (Q16531 whole entry partner): as the sequence (Q16531 whole entry partner) above

Row | Structure (SMILES) | DC50 [1] [nM] | DC50 [2] [nM] | DC50 [3, 4] [nM] | DC50 ([3]; 4 hrs incubation, read-out: IRAK4 degradation in OCI-LY10 at 4 hrs: DC50) [nM]
1 | COc1cc2nc([C@H]3CC[C@H](CN4CCC5(CC4)CC(Nc4cccc6c4C(=O)N(C4CCC(=O)NC4=O)C6=O)C5)CC3)sc2cc1NC(=O)c1cccc(C)n1 (stereo partly drawn) [I-15] | 100 to 500 | 50 to 100 | – | –
2 | CC(C)(O)c1cc2nc(N3CCC(CN4CC5(CC(CCNc6cccc7c6C(=O)N(C6CCC(=O)NC6=O)C7=O)C5)C4)CC3)sc2cc1NC(=O)c1cccc(C(F)(F)F)n1 (stereo not drawn) [I-36] | < 50 | < 50 | – | –
3 | CC(C)(O)c1cc2nc([C@H]3CC[C@H](CN4CCC5(CC4)CC(CCNc4cccc6c4C(=O)N(C4CCC(=O)NC4=O)C6=O)C5)CC3)sc2cc1NC(=O)c1cccc(C(F)(F)F)n1 (stereo partly drawn) [I-5] | < 50 | < 50 | – | –
4 | CC(C)(O)c1cc2nc([C@H]3CC[C@H](CN4CC5(CC(CCNc6cccc7c6C(=O)N([C@H]6CCC(=O)NC6=O)C7=O)C5)C4)CC3)sc2cc1NC(=O)c1cccc(C(F)(F)F)n1 (single isomer, unassigned) [I-66] | < 50 | < 50 | < 50 | –
5 | COc1cc2nc([C@H]3CC[C@H](CN4CC5(CC(CCNc6cccc7c6C(=O)N(C6CCC(=O)NC6=O)C7=O)C5)C4)CC3)sc2cc1NC(=O)c1cccc(C(C)(F)F)n1 (stereo partly drawn) [I-8] | < 50 | < 50 | – | –
6 | CC(C)(O)c1cc2nc([C@H]3CC[C@H](CN4CC5(CC(CCNc6cccc7c6C(=O)N(C6CCC(=O)NC6=O)C7=O)C5)C4)CC3)sc2cc1NC(=O)c1cccc(C(F)(F)F)n1 (stereo partly drawn) [I-3, N-[2-[4-[[6-[2-[[2-(2,6-dioxo-3-piperidyl)-1,3-dioxo-isoindolin-4-yl]amino]ethyl]-2-azaspiro[3.3]heptan-2-yl]methyl]cyclohexyl]-5-(1-hydroxy-1-methyl-ethyl)-1,3-benzothiazol-6-yl]-6-(trifluoromethyl)pyridine-2-carboxamide] | < 50 | < 50 | < 50 | 50 to 100
7 | COc1cc2nc([C@H]3CC[C@H](CN4CC5(CC(CCNc6cccc7c6C(=O)N(C6CCC(=O)NC6=O)C7=O)C5)C4)CC3)sc2cc1NC(=O)c1ccnc(C)n1 (stereo partly drawn) [I-16] | < 50 | – | – | –
8 | COc1cc2nc([C@H]3CC[C@H](CN4CCC(O[C@H]5C[C@H](Nc6cccc7c6C(=O)N(C6CCC(=O)NC6=O)C7=O)C5)CC4)CC3)sc2cc1NC(=O)c1cccc(C(F)(F)F)n1 (stereo partly drawn) [I-39] | < 50 | < 50 | – | –
9 | COc1cc2nc([C@H]3CC[C@H](CN4CCC5(CC4)CC(CCNc4cccc6c4C(=O)N(C4CCC(=O)NC4=O)C6=O)C5)CC3)sc2cc1NC(=O)c1cccc(C)n1 (stereo partly drawn) [I-12] | < 50 | < 50 | – | –
10 | CC(C)(O)c1cc2nc([C@H]3CC[C@H](CN4CC5(CC(CCNc6cccc7c6C(=O)N(C6CCC(=O)NC6=O)C7=O)C5)C4)CC3)sc2cc1NC(=O)c1cccc(C(C)(F)F)n1 (stereo partly drawn) [I-56] | < 50 | < 50 | < 50 | –
11 | CN(CCCO[C@H]1C[C@H](Nc2cccc3c2C(=O)N(C2CCC(=O)NC2=O)C3=O)C1)C[C@H]1CC[C@H](c2nc3cc(C(C)(C)O)c(NC(=O)c4cccc(C(F)(F)F)n4)cc3s2)CC1 (stereo partly drawn) [I-7] | < 50 | < 50 | – | –
12 | CC(C)(O)c1cc2nc([C@H]3CC[C@H](CN4CC5(CC(CCCNc6cccc7c6C(=O)N(C6CCC(=O)NC6=O)C7=O)C5)C4)CC3)sc2cc1NC(=O)c1cccc(C(F)(F)F)n1 (stereo partly drawn) [I-13] | < 50 | < 50 | – | –
13 | CC(C)(O)c1cc2nc(N3CC(CN4CC5(CC(CNc6cccc7c6C(=O)N(C6CCC(=O)NC6=O)C7=O)C5)C4)C3)sc2cc1NC(=O)c1cccc(C(F)(F)F)n1 (stereo not drawn) [I-44] | < 50 | < 50 | – | –
14 | CC(C)(O)c1cc2nc(N3CCC(CN4CCC5(CC4)CC(CCNc4cccc6c4C(=O)N(C4CCC(=O)NC4=O)C6=O)C5)CC3)sc2cc1NC(=O)c1cccc(C(F)(F)F)n1 (stereo not drawn) [I-18] | < 50 | < 50 | – | –
15 | COc1cc2nc([C@H]3CC[C@H](CN4CC5(CCC(CNc6cccc7c6C(=O)N(C6CCC(=O)NC6=O)C7=O)CC5)C4)CC3)sc2cc1NC(=O)c1cccc(C(C)(F)F)n1 (stereo partly drawn) [I-11] | 100 to 500 | 50 to 100 | – | –
16 | COc1cc2nc([C@H]3CC[C@H](CN4CC5(CC(CCNc6cccc7c6C(=O)N(C6CCC(=O)NC6=O)C7=O)C5)C4)CC3)sc2cc1NC(=O)c1cccc(C(F)(F)F)n1 (stereo partly drawn) [I-10] | < 50 | < 50 | – | –
17 | CC(C)(O)c1cc2nc(N3CCC(CN4CCC5(CC4)CC(Nc4cccc6c4C(=O)N(C4CCC(=O)NC4=O)C6=O)C5)CC3)sc2cc1NC(=O)c1cccc(C(F)(F)F)n1 (stereo not drawn) [I-4] | < 50 | < 50 | – | –
18 | CC(C)(O)c1cc2nc([C@H]3CC[C@H](CN4CC5(CC(CCNc6cccc7c6C(=O)N([C@@H]6CCC(=O)NC6=O)C7=O)C5)C4)CC3)sc2cc1NC(=O)c1cccc(C(F)(F)F)n1 (single isomer, unassigned) [I-65] | < 50 | < 50 | < 50 | –
19 | COc1cc2nc([C@H]3CC[C@H](CN4CCC(CCNc5cccc6c5C(=O)N(C5CCC(=O)NC5=O)C6=O)CC4)CC3)sc2cc1NC(=O)c1cccc(C(C)(F)F)n1 (stereo partly drawn) [I-9] | 50 to 100 | < 50 | – | –
20 | CC(C)(O)c1nc2nc([C@H]3CC[C@H](CN4CC5(CC(CCNc6cccc7c6C(=O)N(C6CCC(=O)NC6=O)C7=O)C5)C4)CC3)sc2cc1NC(=O)c1cccc(C(F)(F)F)n1 (stereo partly drawn) [I-43] | < 50 | < 50 | – | –
21 | CC(C)(O)c1cc2nc([C@H]3CC[C@H](CN4CC5(CC(CCNc6cccc7c6C(=O)N(C6CCC(=O)NC6=O)C7=O)C5)C4)CC3)sc2cc1NC(=O)c1cnn2ccc(N3C[C@H]4C[C@@H]3CO4)nc12 (stereo partly drawn) [I-61] | – | – | > 1000 | –
22 | COc1cc2nc([C@H]3CC[C@H](CN4CCC5(CC4)CC(CCNc4cccc6c4C(=O)N(C4CCC(=O)NC4=O)C6=O)C5)CC3)sc2cc1NC(=O)c1ccnc(C)n1 (stereo partly drawn) [I-17] | < 50 | < 50 | – | –
23 | CC(C)(O)c1cc2nc(N3CC(CN4CCC5(CC4)CC(CNc4cccc6c4C(=O)N(C4CCC(=O)NC4=O)C6=O)C5)C3)sc2cc1NC(=O)c1cccc(C(F)(F)F)n1 (stereo not drawn) [I-38] | < 50 | < 50 | – | –
24 | COc1cc2nc([C@H]3CC[C@H](CN(C)[C@H]4CC[C@@]5(CC4)C[C@@H](CNc4cccc6c4C(=O)N(C4CCC(=O)NC4=O)C6=O)C5)CC3)sc2cc1NC(=O)c1cccc(C(F)(F)F)n1 (stereo partly drawn) [I-14] | 50 to 100 | < 50 | – | –

Source: patent publication US20210228562A1, “IRAK DEGRADERS AND USES THEREOF” (Kymera Therapeutics, Inc., priority 2019, published 2021)
